In test [1] the test system is MCF-7. Nature of the test: Long-term (10 days) live/dead proliferation assay, calcein AM and Hoechst 33342, MCF-7. Particulars: 1 µM exemestane, 1 mM (R)-α-lipoic acid. Format: cell-based, human. The procedure:
(§1) Cells were seeded on day one in 96-well plates. […] Then, cells were stained with calcein AM (Millipore Corporation, Billerica, MA, USA) and Hoechst 33342 (Tocris Bioscience, Bristol, UK) for 30 min and fluorescence images monitored by Leica DMi8 Thunder Imager (Leica Microsystems CMS GmbH, Wetzlar, Germany). Five images per well were monitored randomly. Calcein AM- and Hoechst 33342-stained area of the images (i.e., live proliferating cells) were evaluated.

Test [2] relates to T47D. The test can be described thus: MTT cell viability assay, T47D. In kind it is cell-based, human. As to the method: MTT assays were performed as previously described. […] After incubation time, medium was replaced by MTT (solution of 5 mg/mL 3-(4,5-dimethylthiazol-2-yl)-2,5-diphenyl-tetrazoliumbromidin in phosphate buffered saline, Serva, Heidelberg, Germany).
The subject of test [3] is MCF-7. The test can be described thus: Mitochondrial potential assay (TMRE), MCF-7. In kind it is cell-based, human. The settings on record: 1 mM; 2 h, 6 h, 24 h, 48 h. The procedure:
The analysis of mitochondrial potential was carried out as previously described with minor modifications concerning fluorescence measurement. […] After an incubation time of 2 h, 6 h, 24 h, and 48 h, medium was removed, and cells were washed with PBS and then stained for 30 min at 37 °C with 50 µL staining reagent containing 500 nM tetramethyl rhodamine ethylester as perchlorate (TMRE, BIOTREND chemicals GmbH, Cologne) and Hoechst 33342 (5 µg/mL). A quantity of 20 µM CCCP (carbonyl cyanide-m-chlorophenylhydrazone, Sigma-Aldrich, München, Germany) served as control for mitochondrial potential breakdown. Fluorescence was measured by Leica DMi8 Thunder Imager (Leica Microsystems CMS GmbH, Wetzlar, Germany).

The target in a further test is HDAC2 (Homo sapiens, UniProt Q92769). The test can be described thus: Enzyme HDAC inhibition assay, HDAC2. Particulars: read-out: IC50 HDAC 2; IC50 ± SEM; three experiments in duplicates.
Chain of HDAC2 (Q92769 whole entry): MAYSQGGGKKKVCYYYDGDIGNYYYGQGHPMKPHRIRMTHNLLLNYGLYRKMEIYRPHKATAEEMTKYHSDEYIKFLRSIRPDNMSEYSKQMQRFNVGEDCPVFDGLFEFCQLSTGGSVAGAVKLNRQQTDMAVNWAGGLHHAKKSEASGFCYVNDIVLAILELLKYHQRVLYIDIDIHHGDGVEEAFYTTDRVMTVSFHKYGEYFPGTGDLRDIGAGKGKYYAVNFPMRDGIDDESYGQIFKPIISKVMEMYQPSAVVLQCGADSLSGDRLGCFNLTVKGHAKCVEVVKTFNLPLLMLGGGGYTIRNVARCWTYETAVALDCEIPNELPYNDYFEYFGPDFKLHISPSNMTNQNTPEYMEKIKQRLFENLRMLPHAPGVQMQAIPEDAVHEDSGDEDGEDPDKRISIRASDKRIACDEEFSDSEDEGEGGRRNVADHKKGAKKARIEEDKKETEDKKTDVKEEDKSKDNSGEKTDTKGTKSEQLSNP
The next test has as its system HDAC6. Particulars: obtained by fitting Lechner et al. source data to a sigmoidal concentration–effect model; ref [21]; read-out: IC50 HDAC 6, Lechner et al.; cited from earlier work.
In test [4] the test system is T47D. Nature of the test: Immunoblotting, T47D. Format: cell-based, human. The settings on record: 48 h. The procedure: (§2) A quantity of 20 or 40 µg of total protein as well as, from PageRuler Prestained Protein Ladder, 10–180 kDA (Thermo Scientific, Wesel, Germany), were resolved by SDS-Page (12% polyacrylamide gel) and transferred to polyvinylidene fluoride membrane (Millipore Corporation, Billerica, MA, USA). Blots were incubated with primary antibodies against acetylated a -tubulin (Cat. No. sc-23950), a -tubulin (Cat. No. sc-8035) (Santa Cruz Biotechnology, Heidelberg, Germany), acetyl histone h3 (Cat. No. 39140) and histone H3 (Cat. No. NB100-1669), ß-actine (Cat. No. sc-47778), p21 (AF1047), c-myk (Cat. No. MAB3696), APAF1 (Cat. No. MAB868), BIM (Cat. No. NBP1-76936), FOXO1 (Cat. No. C29H4), BCL-2 (Cat. No. AF810), and survivin (Cat. No. AF886). After another one-hour incubation with the appropriate HRP-conjugated secondary antibody, proteins were visualized by Intas Imager (Intas, Göttingen, Germany) using luminol reagent (Santa Cruz Biotechnology, Heidelberg, Germany).
(In general: Immunoblotting shows a protein as a band on a membrane.)

Test [5] concerns MCF-7. Nature of the test: Immunoblotting, MCF-7. In kind it is cell-based, human. Particulars: 48 h. The procedure:
as §2

In test [6] the test system is T47D. The test can be described thus: Long-term (10 days) live/dead proliferation assay, calcein AM and Hoechst 33342, T47D. Format: cell-based, human. Particulars: 1 µM exemestane, 1 mM (R)-α-lipoic acid. The procedure: as §1
In test [7] the test system is caspase 3/7 in MCF-7 cells. The test can be described thus: Caspase 3/7 activation assay, MCF-7. Format: cell-based, human. Particulars: 24 h; 1 µM exemestane, 0.5 mM or 1 mM (R)-α-lipoic acid. The procedure:
(§3) To analyze the compound-induced activation of capases 3 and 7, the CellEvent caspase 3/7 green detection reagent (Thermo Scientific, Wesel, Germany) was used according to the manufacturer’s instructions. […] After 24 h incubation, medium was removed, and cells were stained with 50 µL of CellEvent caspase 3/7 green detection reagent (2 µM in PBS supplemented with 5% heat-inactivated FBS). Cells were incubated for 30 min at 37 °C in a humidified incubator before imaging by using the Thermo Fisher ArrayScan XTI high content screening (HCS) system with a 10× magnification (Thermo Scientific). Hoechst 33342 was added for nuclei staining.

For test [8], the system named is caspase 3/7 in T47D cells. The test can be described thus: Caspase 3/7 activation assay, T47D. Format: cell-based, human. Particulars: 24 h; 1 µM exemestane, 0.5 mM or 1 mM (R)-α-lipoic acid. As to the method:
as §3

In another test the test system is HDAC. The settings on record: up to 500 µM (max. concentration tested); ref [21]; cited from earlier work.
Setting [9] is: 120 h, IC50 ± SEM, read-out: IC50 T-47D, 120 h MTT assay.
The mark [10] stands for this setting: 1 mM (R)-α-lipoic acid, 1 µM exemestane.

We go through 2 compounds from publication PMC11313180 (International Journal of Molecular Sciences, 2024).

Read-outs that look alike come from different tables or passages of the source. Bounds are passed on as bounds.

For orientation: IC50 means the concentration needed to halve the response being measured.

Source text for HDAC2: All human recombinant enzymes were purchased from Reaction Biology Corp. (Malvern, PA, USA).

Regarding `O=C(O)CCCC[C@@H]1CCSS1` [(R)-α-lipoic acid], in the test with MCF-7 [1], the “proliferation and doubling time over 10 days, MCF-7” value was “strong reduction in proliferation and thus increase in doubling time”. Besides, the “reduction of proliferation at 100 µM, T47D” value with T47D [2] (100 µM, 120 h MTT) worked out at 12%. For the same compound, the “reduction of proliferation at 300 µM, T47D” value in the test with T47D [2] (300 µM, 120 h MTT, more pronounced effect in T47D) was “significantly reduced proliferation”. In addition, the “decrease of cell viability, T47D” value with T47D [2] (1 mM, 72 h MTT) is reported as “approximately 35%”. Further, the IC50 with T47D [2] (72 h MTT, slightly above, read-out: IC50 T47D) was roughly 1000 µM. Besides, the half-inhibitory concentration (IC50) with T47D [2] (setting [9]) came to 435 ± 28.6 µM. For the same compound, the “increase in potency by prolongation of incubation time, T47D” value with T47D [2] (120 h versus 72 h MTT) was found to be 2.6 fold. Moreover, the 50% inhibitory concentration (IC50) with T47D [2] (read-out: IC50 T-47D, 72 h MTT assay, 72 h, IC50 ± SEM) amounted to 1120 ± 67.8 µM. Also, the “mitochondrial potential and structure (TMRE)” value with MCF-7 [3] is “mitochondrial fusion up to 24 h followed by mitochondrial fission and inhibition of proliferation”. For the same compound, on HDAC2, the IC50 came to 208 ± 34.9 µM. Besides, the IC50 in the test on HDAC6 is 210 µM. In addition, in the test with T47D [4], the “expression of APAF-1 and BIM, T47D” value is “upregulated”; the “expression of FOXO1, T47D” value is recorded as “strongly upregulated”. Further, in the test with T47D [4] (setting [10]), the “acetylation of histone H3 and alpha-tubulin (western blot), T47D” value is “increased acetylation of histone and of alpha-tubulin”; the “expression of p21, T47D” value is recorded as “moderately upregulated”; the “expression of survivin and c-myk, T47D” value is “strongly downregulated”. Further, in the test with MCF-7 [5], the “expression of APAF-1 and BIM, MCF-7” value is reported as “upregulated”; the “expression of FOXO1, MCF-7” value is “strongly upregulated”. Moreover, in the test on MCF-7 [5] (setting [10]), the “acetylation of histone H3 and alpha-tubulin (western blot), MCF-7” value is “increased acetylation of histone and of alpha-tubulin”; the “expression of p21, MCF-7” value is recorded as “moderately upregulated”; the “expression of survivin and c-myk, MCF-7” value is on record as “strongly downregulated”. Also, the “proliferation and doubling time over 10 days, T47D” value in the test on T47D [6] was “reduced proliferation and increased doubling time strongly”.

`O=C(O)CCCC[C@H]1CCSS1` [(S)-α-lipoic acid]: the IC50 with T47D [2] (setting [9]) was 338 ± 17.4 µM; at HDAC2 it was 299 ± 34.6 µM; in the test on HDAC6 it was greater than 500 µM. The “caspase 3/7 activation, MCF-7” value in test [7] was “slightly lower than (R)-α-lipoic acid”. The “caspase 3/7 activation, T47D” value in test [8] was “slightly lower than (R)-α-lipoic acid”. Moreover, the HDAC inhibitory activity entry in the test with HDAC is “no HDAC inhibitory activity”.
